# Source: US20040175763A1, “Crohn's disease antibody-binding peptide and method of examining crohn's disease” (priority 2001, published 2004)
# No end group written: not given here.
# Columns and labels:
# [1] = tested on: Crohn's disease antibody (serum IgG); assay: MAP peptide ELISA of CDP-1a, CDP-5a and VATE-201 (Example 4); format: binding, human; details: 20 Crohn's disease, 20 ulcerative colitis, 20 healthy volunteer serum samples
# Excerpt: Therefore, the following peptides (CDP-1a peptide, CDP-5a peptide, VATE-201 peptide) were respectively synthesized in the MAP form (multiple antigenic peptides) by the same procedure as described in Example 1(3) (FIG. 9), and in accordance with the protocol of Example 2(1), the reactivity of each MAP peptide to various serum samples (Crohn's disease patient sera, ulcerative colitis patient sera and healthy volunteer sera) was investigated by ELISA.
# As test sera, 20 Crohn's disease patient serum samples were used and, as control sera, 20 ulcerative colitis serum samples and 20 healthy volunteer serum samples were used.
# Crohn's disease antibody [2] = assay: Test for inhibition of the antigen-antibody reaction between CDP-1a peptide and Crohn's disease antibody (Example 5); format: binding, human; details: sera No. 8, No. 9, No. 14; reaction inhibitor 100 μg/ml
# Protocol: To confirm the reactivity of VATE-201 obtained in Example 4, a test for inhibition of the antigen-antibody reaction between CDP-1a peptide and Crohn's disease antibody was carried out using VATE-201 peptide.
# More particularly, the MAP plate prepared by immobilizing CDP-1a MAP peptide was used as the antigen plate (see Example 2(1)). On the other hand, 1 μL of each serum sample was added to 100 μL of a casein solution ((D)-PBS containing 0.1% casein and 1% Triton X-100) containing the MAP peptide of VATE-201 (reaction inhibitor) at a concentration of 100 μg/ml and the reaction was carried out at 37° C. for one hour. The whole amount of the reaction mixture thus obtained was added to the above MAP plate and ELISA was performed in the same manner as in Example 2(1). As a comparative experiment, using the MAP peptide of CDP-1a in lieu of the MAP peptide of VATE-201 as said reaction inhibitor, ELISA was carried out in otherwise the same manner.
# [3] = tested on: Crohn's disease antibody (serum antibodies); assay: MAP antigen-ELISA of Z300 peptide (Example 6(4)); format: binding, human; details: 20 ulcerative colitis, 20 healthy volunteer serum samples
# Protocol: Therefore, in order to confirm that human nuclear protein (HZF300) is a protein simulated or mimicked by CDP3 peptide, the peptide (Z300 peptide) having the amino acid sequence of the 126-138 amino acid region of HZF300 was prepared in the form of a MAP peptide and the MAP antigen ELISA was carried out using 20 Crohn's disease patient serum samples, 20 ulcerative colitis patient serum samples, and 20 healthy volunteer serum samples.
# First, each human serum was diluted 101-fold with the sample diluent (described hereinbefore) and 100 μL/well of the solution was added to the MAP plate prepared by immobilizing the said MAP peptide. Then, the procedure of the secondary reaction and subsequent operation described in Example 6(2) was followed to investigate the reactivity of the MAP peptide to various kinds of serum antibodies.
# Crohn's disease antibody [4] = assay: Test for inhibition of the antigen-antibody reaction between CDP3 peptide and Crohn's disease antibody using Z300 peptide (Example 6(5)); format: binding, human; details: sera No. 2, No. 7, No. 8; inhibitor 100 μg/ml
# Protocol: To verify the reactivity of Z300 peptide to Crohn's disease antibodies, a test for inhibition of the antigen-antibody reaction between CDP3 peptide and Crohn's disease antibody was performed using Z300 peptide.
# More particularly, the MAP plate prepared by immobilizing the MAP peptide of CDP3 on a plate (Example 2(1)) was used. To 100 μL of the sample diluent containing 100 μg/ml of Z300 MAP peptide (reaction inhibitor) was added 1 μL of the serum sample and the reaction was carried out at 25° C. for one hour. The whole amount of this reaction mixture was added to the plate and ELISA was performed in the same manner as in Example 6(2). As a comparative experiment, ELISA was similarly performed using the MAP peptide of CDP3, in lieu of the MAP peptide of Z300, as said reaction inhibitor.
# [5] = tested on: Crohn's disease antibody (serum antibodies); assay: MAP antigen-ELISA of TO3965 peptide (Example 7(4)); format: binding, human; details: 20 ulcerative colitis, 20 healthy volunteer serum samples
# Protocol: At this junction, in order to endorse the assumption that rice allergen proteins are proteins simulated or mimicked by CDP4 peptide, a peptide (TO3965 peptide) having an amino acid sequence corresponding to the 99-111 amino acid region of Rice seed allergen RA14 (FIG. 16) was prepared in the form of a MAP peptide and the MAP antigen-ELISA was performed using 20 Crohn's disease patient serum samples, 20 ulcerative colitis patient serum samples, and 20 healthy volunteer serum samples.
# Except that a MAP antigen plate prepared by immobilizing the MAP peptide of TO3965 on the plate was used as the antigen plate, the MAP antigen-ELISA was carried out in otherwise the same manner as in Example 6(4).
# Crohn's disease antibody [6] = assay: Test for inhibition of the antigen-antibody reaction between CDP4 peptide and Crohn's disease antibody using TO3965 peptide (Example 7(5)); format: binding, human; details: sera Nos. 3, 6, 15, 17 and 20
# Protocol: To confirm the reactivity of TO3965 peptide to Crohn's disease antibody, a test for inhibition of the antigen-antibody reaction between CDP4 peptide and Crohn's disease antibody was performed using TO3965 peptide as a reaction inhibitor as in Example 6(5).
# [7] = target: Crohn's disease patient serum No. 2 (serum antibody); assay: inhibition ELISA; serum pre-incubated with 100 ug/mL MAP peptide, then CDP3 MAP plate; grade of reaction-inhibiting activity
# [8] = target: Crohn's disease patient serum No. 8 (serum antibody); assay: as above
molecule,measurement,setting,value
RLDLIAQQMMPEVR [VATE-201],ELISA reactivity to serum samples,[1],ELISA reactivities mutually alike
same,inhibition of the reactivity of Crohn's disease serum samples with the CDP-1a MAP plate,Crohn's disease antibody [2],invariably inhibited the reactivity
"Z300: peptide having the amino acid sequence of the 126-138 amino acid region of HZF300, SEQ ID NO:31 (LVCQGDGQLQRFL; Kruppel-like Zinc Finger Protein 300; listed as Homo sapiens)",reactions with ulcerative colitis patient sera and healthy volunteer sera,[3],did not show definite reactions
same,inhibition of the reactivity of Crohn's disease patient sera to the CDP3 MAP plate,Crohn's disease antibody [4],inhibited the reactivity of all Crohn's disease patient sera
"TO3965: peptide with the amino acid sequence of the 99-111 amino acid region of Rice seed allergen RA14, SEQ ID NO:42 (HMVGGIYRELGAT; Rice; Rice Seel Allergen RA14)",reactions with ulcerative colitis patient sera and healthy volunteer sera,[5],did not show definite reactions
same,inhibition of the reactivity of Crohn's disease patient serum samples to the CDP4 MAP plate,Crohn's disease antibody [6],inhibition everything of the reactivity
AEGELRQSDGQYAM (also: MAP: 8 copies as branches on a lysine core) [MAP peptide of CDP3-13],reaction-inhibiting activity,[7],30 to 50%
same,reaction-inhibiting activity,[8],50 to 70%
